Consider 8 compounds from EP3360891B1, “CELL PENETRATING PEPTIDES OF HUMAN ORIGIN” (Karlsruher Institut für Technologie, priority 2017, dated 2018).

One may read the viability as a read-out of living cells in per cent, often relative to untreated cells. Read a high viability as better survival.

Ends that are not written are not given here. Peptide text beside a SMILES is read from it. * marks the point of attachment. 5FAM = O=C1OC2(c3ccc(O)cc3Oc3cc(O)ccc32)c2ccc(C(=O)*)cc21

The nature of one data set: in vitro. The following applies: human. How it is done: Said cells (7000 cells per well) were seeded in 96-well plate and were allowed to grow overnight in standard growth medium containing FBS. On the next day, the medium was discarded and the cells were washed thrice with phosphate buffered saline and incubated with the peptides at 10µM, 25µM, 50µM and 100µM in culture medium without FBS for 24 h at 37°C, 5% CO2. On the following day the cells were washed again with phosphate buffered saline. MTT reagent was added to cells at a final concentration of 1mg/ml in phosphate buffered saline and incubated for 2-4 h at 37°C, 5% CO2. Addition of MTT to the said cells yielded purple formazan crystals that were dissolved by addition of DMSO and the absorbance was measured at 570 nm.

Data set [1] has as its system HaCaT keratinocyte cell line. As to the kind of experiment: Cellular uptake into HaCaT keratinocytes, flow cytometry. Format: cell-based, human. The following applies: for cellular translocation: 25µM carboxyfluorescein labeled peptide, 1 h, 37°C, medium without FBS, mean of six measurements; for cell uptake in comparison to SSL-25: 1 h incubation at a concentration of 25µM. On the procedure:
Cells (20,000 cells per well) were seeded in 24-well plates and allowed to grow in standard growth medium containing Fetal Bovine Serum (FBS) overnight to attain a confluency of 70%. On the following day, the medium was discarded and cells were washed with phosphate buffered saline. Subsequently the peptide was added at a final concentration of 25µM in culture medium without FBS. The cells were incubated with the peptides labeled with carboxyfluorescein at the N-terminus at 37°C, 5% CO2 for 1 h in the dark. Following incubation of the cells with the peptides, the cells were washed three times with phosphate buffered saline. Subsequently, the cells were trypsinized using 0.25% Trypsin-EDTA for 10 min at 37°C, 5% CO2 to allow the protease dependent degradation of adsorbed surface bound peptides and to allow the detachment of cells from the 24-well plate for further analysis.
The cellular uptake of peptides was assessed by flow cytometry. 5000 events per sample were recorded and analyzed in the flow cytometer. A mean of six measurements was plotted with standard deviations being represented by error bars. […] These peptides translocate in HaCaT cells more efficiently as compared to SSL-25 (31%), SSL-9 E5A D9K (28%) and SSL-9 E5K D9K (22%).

Data set [2] can be described thus: Translocation into lipid vesicles (encapsulated chymotrypsin, Gly-Gln-Phe-Coumarin tag, method of Marks et al.). The following applies: after 10 min, without Zn2+ ions, Figure 4B. The source says:
Wimley, Spontaneous Membrane-Translocating Peptides by Orthogonal High-Throughput Screening, J Am Chem Soc, 133 (2011) 8995-9004].
In this method, the sequence Gly-Gln-Phe-Coumarin is C-terminally coupled to the peptides. Chymotrypsin is encapsulated in the vesicles, and this enzyme cuts the peptide between phenylalanine and coumarin. If accordingly labeled peptides penetrate into the vesicles, Chymotrypsin acts and cleaves the Phe-Coumarin bond which sets the coumarin free and causes a bathochromic shift of the fluorescence maximum of about 50 nm. which can be determined fluorimetrically.
Large unilamellar vesicles consisting of POPC / POPG 25:75 (mol:mol) were used in a concentration of 100 µM in buffer without or with 100 µM ZnSO4. […]

Another data set concerns human erythrocytes. The following applies: human erythrocytes 0.25 % hematocrit, 37 °C, 30 minutes, 2-fold dilutions from 1024 µM stock, relative to Triton X-100 lysis.

Protocol for human erythrocytes: A concentrated solution of human erythrocytes was adjusted to a hematocrit of 0.5% by repeated washing with buffer solution (172 mM Tris-HCI, pH 7.6) and this diluted solution was equilibrated to 37 °C in a water bath.
The peptides were prepared as a 1024 µM stock solutions in buffer, added to the erythrocytes in sequential 2-fold dilutions and incubated at 37 °C for 30 minutes with occasional shaking.
The cells were centrifuged and the released hemoglobin in the supernatant was quantified using spectrophotometry. The obtained values were set in reference to the value obtained by complete lysis of all cells upon addition of Triton™ X-100.

`CC(C)C[C@H](NC(=O)CNC(=O)[C@H](CCCCN)NC(=O)[C@H](C)NC(=O)[C@H](CC(C)C)NC(=O)[C@H](CC(C)C)NC(=O)[C@H](CO)NC(=O)[C@H](CO)NC(=O)c1ccc2c(c1)C(=O)OC21c2ccc(O)cc2Oc2cc(O)ccc21)C(=O)N[C@@H](CCCCN)C(=O)O` [SSL-9 E5A D9K] (5FAM-SSLLAKGLK-OH; N-terminus and C-terminus assumed) gave a viability at 24 h, 100 µM in the data set “in vitro” (HaCaT keratinocytes) of 70%. For the same compound, in data set [1], the cellular translocation came out at 28% and the “cell uptake in comparison to SSL-25” value is given as “reduced but comparable uptake”.
In turn, `CC(C)C[C@H](NC(=O)CNC(=O)[C@H](CCCCN)NC(=O)[C@H](CCCCN)NC(=O)[C@H](CC(C)C)NC(=O)[C@H](CC(C)C)NC(=O)[C@H](CO)NC(=O)[C@H](CO)NC(=O)c1ccc2c(c1)C(=O)OC21c2ccc(O)cc2Oc2cc(O)ccc21)C(=O)N[C@@H](C)C(=O)O` [SSL-9 E5K D9A] (5FAM-SSLLKKGLA-OH; N-terminus and C-terminus assumed) returned a viability at 24 h, 100 µM in “in vitro” of 70%. In data set [1], the cellular translocation stood at 81.7% and the “cell uptake in comparison to SSL-25” value is recorded as “higher cell uptake in comparison to SSL-25”.
As to `CC(C)C[C@H](NC(=O)CNC(=O)[C@H](CCCCN)NC(=O)[C@H](CCCCN)NC(=O)[C@H](CC(C)C)NC(=O)[C@H](CC(C)C)NC(=O)[C@H](CO)NC(=O)[C@H](CO)NC(=O)c1ccc2c(c1)C(=O)OC21c2ccc(O)cc2Oc2cc(O)ccc21)C(=O)N[C@@H](CCCCN)C(=O)O` [SSL-9 E5K D9K] (5FAM-SSLLKKGLK-OH; N-terminus and C-terminus assumed), the viability at 24 h, 100 µM in the data set “in vitro” turned out to be 70%. Besides, in data set [1], the cellular translocation amounted to 22% and the “cell uptake in comparison to SSL-25” value is reported as “reduced but comparable uptake”.
For `CC(C)C[C@H](NC(=O)CNC(=O)[C@H](CCCCN)NC(=O)[C@H](CCC(=O)O)NC(=O)[C@H](CC(C)C)NC(=O)[C@H](CC(C)C)NC(=O)[C@H](CO)NC(=O)[C@H](CO)NC(=O)c1ccc2c(c1)C(=O)OC21c2ccc(O)cc2Oc2cc(O)ccc21)C(=O)N[C@@H](CC(=O)O)C(=O)O` [SSL-9, SSLLEKGLD] (5FAM-SSLLEKGLD-OH; N-terminus and C-terminus assumed), the viability at 24 h, 100 µM in the data set “in vitro” worked out at 70%. In addition, the extent of translocation result in data set [2] is “reduced translocation”. Also, in data set [1], the cellular translocation was 50% and the “cell uptake in comparison to SSL-25” value was “higher cell uptake in comparison to SSL-25”.
With `CC(C)C[C@H](NC(=O)CNC(=O)[C@H](CCCCN)NC(=O)[C@H](CCC(=O)O)NC(=O)[C@H](CC(C)C)NC(=O)[C@H](CC(C)C)NC(=O)[C@H](CO)NC(=O)[C@H](CO)NC(=O)c1ccc2c(c1)C(=O)OC21c2ccc(O)cc2Oc2cc(O)ccc21)C(=O)N[C@@H](CC(=O)O)C(=O)NCC(=O)N[C@@H](C)C(=O)O` [SSL-11, SSLLEKGLDG A] (5FAM-SSLLEKGLDGA-OH; N-terminus and C-terminus assumed), the viability at 24 h, 100 µM in the data set “in vitro” (HaCaT keratinocytes) is 70%. Also, in data set [2], the extent of translocation result is on record as “reduced translocation”. Moreover, in data set [1], the cellular translocation is recorded as 70% and the “cell uptake in comparison to SSL-25” value is “higher cell uptake in comparison to SSL-25”.
As for `CC(C)C[C@H](NC(=O)CNC(=O)[C@H](CCCCN)NC(=O)[C@H](CCC(=O)O)NC(=O)[C@H](CC(C)C)NC(=O)[C@H](CC(C)C)NC(=O)[C@H](CO)NC(=O)[C@H](CO)NC(=O)c1ccc2c(c1)C(=O)OC21c2ccc(O)cc2Oc2cc(O)ccc21)C(=O)N[C@@H](C)C(=O)NCC(=O)N[C@@H](C)C(=O)N[C@@H](CCCCN)C(=O)N[C@@H](CCCCN)C(=O)O` [SSL-13 D9A, SSLLEKGLAG AKK] (5FAM-SSLLEKGLAGAKK-OH; N-terminus and C-terminus assumed), the viability at 24 h, 100 µM in “in vitro” (HaCaT keratinocytes) was determined as 70%. In data set [1], the cellular translocation amounted to 81.5% and the “cell uptake in comparison to SSL-25” value is “higher cell uptake in comparison to SSL-25”.
In “in vitro”, `CC(C)C[C@H](NC(=O)CNC(=O)[C@H](CCCCN)NC(=O)[C@H](CCC(=O)O)NC(=O)[C@H](CC(C)C)NC(=O)[C@H](CC(C)C)NC(=O)[C@H](CO)NC(=O)[C@H](CO)NC(=O)c1ccc2c(c1)C(=O)OC21c2ccc(O)cc2Oc2cc(O)ccc21)C(=O)N[C@@H](CC(=O)O)C(=O)NCC(=O)N[C@@H](C)C(=O)N[C@@H](CCCCN)C(=O)N[C@@H](CCCCN)C(=O)O` [SSL-13, SSLLEKGLDG AKK] (5FAM-SSLLEKGLDGAKK-OH) showed a viability at 24 h, 100 µM of 70%. In data set [2], the extent of translocation entry is listed as “able to penetrate lipid membranes very efficiently”. For the same compound, in data set [1], the cellular translocation came out at 48% and the “cell uptake in comparison to SSL-25” value was “higher cell uptake in comparison to SSL-25”.
As for “SSLLEKGLDGAKKAVGGLGKLGKDAVEDLESVGKGAVHDVKDVLDSVL [DCD-1L, SSLLEKGLDGAKKAVGGLGKLGKDAVEDLESVGKGAVHDVKDVLDSVL]”, the hemolysis entry in the data set with human erythrocytes is “no hemolysis”.
